# Source: ChEMBL document CHEMBL1201862, “PubChem BioAssay data set” (2004)
#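 48-hour exposure; five concentrations; linearly interpolated endpoints. GI50 marks 50% less growth.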 Activity calls are given as the source filed them. No stated cut-off is given here; in the data, active = GI50 up to about 1.1 µM and inactive = higher.
# Tests used:
# Assay in all cases: growth of human tumour cells (NCI), 48 h
# A549 = system: A549
# CAKI-1 = system: CAKI-1
# HOP-62 = system: HOP-62
# SK-OV-3 = system: SK-OV-3
# OVCAR-4 = system: OVCAR-4
# ACHN = system: ACHN
# OVCAR-3 = system: OVCAR-3
# IGROV-1 = system: IGROV-1
# 786-0 = system: 786-0
# NCI-H23 = system: NCI-H23
# HCT-116 = system: HCT-116
# M14 = system: M14
# SK-MEL-28 = system: SK-MEL-28
# A498 = system: A498
# UACC-257 = system: UACC-257
# TK-10 = system: TK-10
# NCI-H226 = system: NCI-H226
# RPMI-8226 = system: RPMI-8226
# UACC-62 = system: UACC-62
# DU-145 = system: DU-145
SMILES,GI50 (A549),GI50 (CAKI-1),GI50 (HOP-62),GI50 (SK-OV-3),GI50 (OVCAR-4),GI50 (ACHN),GI50 (OVCAR-3),GI50 (IGROV-1),GI50 (786-0),GI50 (NCI-H23),GI50 (HCT-116),GI50 (M14),GI50 (SK-MEL-28),GI50 (A498),GI50 (UACC-257),GI50 (TK-10),GI50 (NCI-H226),GI50 (RPMI-8226),GI50 (UACC-62),GI50 (DU-145)
Cc1ccc(NC(=O)C(=O)CC(=O)c2ccccc2)cc1C,> 100 µM (inactive),56.8 µM (inactive),> 100 µM (inactive),> 100 µM (inactive),> 100 µM (inactive),> 100 µM (inactive),33.6 µM (inactive),69.8 µM (inactive),> 100 µM (inactive),> 100 µM (inactive),60.3 µM (inactive),> 100 µM (inactive),> 100 µM (inactive),> 100 µM (inactive),> 100 µM (inactive),> 100 µM (inactive),> 100 µM (inactive),> 100 µM (inactive),70.6 µM (inactive),
c1ccc(CCCCNCc2cc(CNCCCCc3ccccc3)cc(CNCCCCc3ccccc3)c2)cc1,0.263 µM (active),1.86 µM (inactive),1.75 µM (inactive),1.97 µM (inactive),1.85 µM (inactive),1.63 µM (inactive),1.47 µM (inactive),0.815 µM (active),1.31 µM (inactive),1.28 µM (inactive),1.97 µM (inactive),0.556 µM (active),0.948 µM (active),,0.859 µM (active),1.82 µM (inactive),2.6 µM (inactive),0.16 µM (active),1.76 µM (inactive),0.762 µM (active)
CC(C)(C)C(=C[S+]([O-])/N=C/c1ccccc1)C(C)(C)C (stereo not drawn),33.4 µM (inactive),30 µM (inactive),37.8 µM (inactive),26.6 µM (inactive),21.4 µM (inactive),36.8 µM (inactive),34.1 µM (inactive),25.8 µM (inactive),> 100 µM (inactive),48 µM (inactive),30.4 µM (inactive),40.2 µM (inactive),> 100 µM (inactive),36.4 µM (inactive),52 µM (inactive),> 100 µM (inactive),20.7 µM (inactive),20.8 µM (inactive),,
O=C(NNCc1ccc(Cl)cc1)Nc1cccc2ccccc12,,42.7 µM (inactive),48.2 µM (inactive),,> 100 µM (inactive),45 µM (inactive),> 100 µM (inactive),> 100 µM (inactive),51.6 µM (inactive),> 100 µM (inactive),63 µM (inactive),> 100 µM (inactive),> 100 µM (inactive),,> 100 µM (inactive),> 100 µM (inactive),> 100 µM (inactive),16.4 µM (inactive),90.4 µM (inactive),69.2 µM (inactive)
Cc1ccccc1-n1c(N)c(-c2nc3ccccc3[nH]2)sc1=S,31.3 µM (inactive),37.8 µM (inactive),25 µM (inactive),43.4 µM (inactive),28.8 µM (inactive),35 µM (inactive),20 µM (inactive),24.8 µM (inactive),30.1 µM (inactive),23.3 µM (inactive),,20.5 µM (inactive),20 µM (inactive),40.1 µM (inactive),19.3 µM (inactive),39.3 µM (inactive),36 µM (inactive),23.1 µM (inactive),18.8 µM (inactive),
N=C(N)NS(=O)(=O)c1ccc(Nc2c3ccccc3nc3c(C(=O)Nc4ccc(S(N)(=O)=O)cc4)ccc(Cl)c23)cc1,> 100 µM (inactive),> 100 µM (inactive),> 100 µM (inactive),> 100 µM (inactive),> 100 µM (inactive),> 100 µM (inactive),> 100 µM (inactive),> 100 µM (inactive),> 100 µM (inactive),> 100 µM (inactive),> 100 µM (inactive),> 100 µM (inactive),> 100 µM (inactive),> 100 µM (inactive),> 100 µM (inactive),> 100 µM (inactive),> 100 µM (inactive),> 100 µM (inactive),> 100 µM (inactive),
CC1C2C=C(O)C(=O)C(C2=O)C1c1ccccc1 (stereo not drawn),> 100 µM (inactive),> 100 µM (inactive),> 100 µM (inactive),> 100 µM (inactive),> 100 µM (inactive),> 100 µM (inactive),> 100 µM (inactive),> 100 µM (inactive),> 100 µM (inactive),> 100 µM (inactive),,> 100 µM (inactive),> 100 µM (inactive),> 100 µM (inactive),> 100 µM (inactive),> 100 µM (inactive),45.1 µM (inactive),> 100 µM (inactive),> 100 µM (inactive),
COC[C@@H](/N=C/c1ccc(OC)cc1)C(C)C,> 100 µM (inactive),> 100 µM (inactive),> 100 µM (inactive),> 100 µM (inactive),> 100 µM (inactive),> 100 µM (inactive),,> 100 µM (inactive),> 100 µM (inactive),> 100 µM (inactive),> 100 µM (inactive),> 100 µM (inactive),> 100 µM (inactive),,> 100 µM (inactive),> 100 µM (inactive),,> 100 µM (inactive),> 100 µM (inactive),> 100 µM (inactive)
C#Cc1c(C)c(/C=C/C(C)=C/C(=O)OC)n(C)c1C,> 100 µM (inactive),> 100 µM (inactive),> 100 µM (inactive),> 100 µM (inactive),82.2 µM (inactive),43.7 µM (inactive),> 100 µM (inactive),> 100 µM (inactive),> 100 µM (inactive),> 100 µM (inactive),65.8 µM (inactive),> 100 µM (inactive),,> 100 µM (inactive),> 100 µM (inactive),> 100 µM (inactive),> 100 µM (inactive),40.3 µM (inactive),94.6 µM (inactive),
COC(=O)[C@@H]1[C@H](O)[C@H](C)[C@H](O)[C@H](C)/C=C\C=C(\C)C(=O)Nc2c(C)c(OC(C)=O)c3c(c2O)C(=O)C(C)=C2OCOC(=C23)/C(C)=C/[C@@H](O)[C@H](O)[C@@H](C)[C@H]1OC(C)=O,,,> 100 µM (inactive),,33.2 µM (inactive),> 100 µM (inactive),,67.9 µM (inactive),> 100 µM (inactive),> 100 µM (inactive),22.5 µM (inactive),38.1 µM (inactive),55.6 µM (inactive),,28.3 µM (inactive),,> 100 µM (inactive),15.5 µM (inactive),,> 100 µM (inactive)
Cc1ccc(S(=O)(=O)NC(=O)NC(Cc2c[nH]c3ccccc23)C(=O)O)cc1 (stereo not drawn),> 100 µM (inactive),,> 100 µM (inactive),> 100 µM (inactive),> 100 µM (inactive),,,> 100 µM (inactive),> 100 µM (inactive),> 100 µM (inactive),> 100 µM (inactive),> 100 µM (inactive),> 100 µM (inactive),,> 100 µM (inactive),> 100 µM (inactive),,> 100 µM (inactive),,> 100 µM (inactive)
Cc1cnc2sn(-c3ccc(Oc4ccccc4)cc3)c(=O)c2c1,16.8 µM (inactive),,12.9 µM (inactive),25.8 µM (inactive),17.9 µM (inactive),13.7 µM (inactive),6.11 µM (inactive),14.7 µM (inactive),10.7 µM (inactive),25.4 µM (inactive),14 µM (inactive),7.43 µM (inactive),10.3 µM (inactive),,11.9 µM (inactive),17.7 µM (inactive),18.2 µM (inactive),9.62 µM (inactive),10.3 µM (inactive),14.1 µM (inactive)
O=C(NCCCCNc1cccccc1=O)OCc1ccccc1,> 100 µM (inactive),> 100 µM (inactive),> 100 µM (inactive),> 100 µM (inactive),> 100 µM (inactive),> 100 µM (inactive),> 100 µM (inactive),> 100 µM (inactive),> 100 µM (inactive),> 100 µM (inactive),> 100 µM (inactive),> 100 µM (inactive),> 100 µM (inactive),> 100 µM (inactive),> 100 µM (inactive),> 100 µM (inactive),> 100 µM (inactive),> 100 µM (inactive),> 100 µM (inactive),
COc1ccc(OC)c(/C(C)=N/NC(N)=S)c1,> 100 µM (inactive),> 100 µM (inactive),> 100 µM (inactive),> 100 µM (inactive),> 100 µM (inactive),> 100 µM (inactive),> 100 µM (inactive),> 100 µM (inactive),> 100 µM (inactive),> 100 µM (inactive),> 100 µM (inactive),> 100 µM (inactive),> 100 µM (inactive),> 100 µM (inactive),> 100 µM (inactive),> 100 µM (inactive),> 100 µM (inactive),> 100 µM (inactive),> 100 µM (inactive),
CC(=O)C1(O)CC2(c3ccccc3)C(=O)C1(c1ccccc1)C(c1ccccc1)=C2c1ccccc1 (stereo not drawn),54.6 µM (inactive),> 100 µM (inactive),> 100 µM (inactive),> 100 µM (inactive),13.5 µM (inactive),,> 100 µM (inactive),> 100 µM (inactive),> 100 µM (inactive),36.6 µM (inactive),30.9 µM (inactive),> 100 µM (inactive),,> 100 µM (inactive),35.6 µM (inactive),> 100 µM (inactive),> 100 µM (inactive),16.5 µM (inactive),79.4 µM (inactive),
